In PubChem BioAssay AID1259407 (Chemical Carcinogenesis Research Information System (CCRIS), 2018):
Active and inactive are the calls of the source. How the calls were made is not given here.

Tested on: CCRIS mutagenicity, Ames/micronucleus/aberration tests
Assay: CCRIS mutagenicity studies
[1] = Test System: AMES SALMONELLA TYPHIMURIUM, Strain/Indicator: TA98, Metabolic Activation: HAMSTER, LIVER, S-9, AROCLOR 1254 (10%), Method: PREINCUBATION
[2] = Test System: AMES SALMONELLA TYPHIMURIUM, Strain/Indicator: TA98, Metabolic Activation: NONE, Method: PREINCUBATION
[3] = Test System: AMES SALMONELLA TYPHIMURIUM, Strain/Indicator: TA98, Metabolic Activation: RAT, LIVER, S-9, AROCLOR 1254 (10%), Method: PREINCUBATION
[4] = Test System: AMES SALMONELLA TYPHIMURIUM, Strain/Indicator: TA100, Metabolic Activation: HAMSTER, LIVER, S-9, AROCLOR 1254 (10%), Method: PREINCUBATION
[5] = Test System: AMES SALMONELLA TYPHIMURIUM, Strain/Indicator: TA100, Metabolic Activation: NONE, Method: PREINCUBATION
[6] = Test System: AMES SALMONELLA TYPHIMURIUM, Strain/Indicator: TA100, Metabolic Activation: RAT, LIVER, S-9, AROCLOR 1254 (10%), Method: PREINCUBATION
[7] = Test System: AMES SALMONELLA TYPHIMURIUM, Strain/Indicator: TA1535, Metabolic Activation: HAMSTER, LIVER, S-9, AROCLOR 1254 (10%), Method: PREINCUBATION
[8] = Test System: AMES SALMONELLA TYPHIMURIUM, Strain/Indicator: TA1535, Metabolic Activation: NONE, Method: PREINCUBATION
[9] = Test System: AMES SALMONELLA TYPHIMURIUM, Strain/Indicator: TA1535, Metabolic Activation: RAT, LIVER, S-9, AROCLOR 1254 (10%), Method: PREINCUBATION
[10] = Test System: AMES SALMONELLA TYPHIMURIUM, Strain/Indicator: TA1537, Metabolic Activation: NONE, Method: PREINCUBATION

In the case of `NCCO`, the mutagenic call [1] is reported as “inactive; negative”, the mutagenic call [2] is reported as “inactive; negative” and the mutagenic call (Test System: AMES SALMONELLA TYPHIMURIUM, Strain/Indicator: TA98, Metabolic Activation: RAT LIVER S-9, PHENOBARBITAL AND BETA-NAPHTHOFLAVONE, Method: PREINCUBATION) is reported as “inactive; negative”. The mutagenic call [3] was “inactive; negative”, the mutagenic call [4] was “inactive; negative” and the mutagenic call [5] was “inactive; negative”. The mutagenic call (Test System: AMES SALMONELLA TYPHIMURIUM, Strain/Indicator: TA100, Metabolic Activation: RAT LIVER S-9, PHENOBARBITAL AND BETA-NAPHTHOFLAVONE, Method: PREINCUBATION) was “inactive; negative”, the mutagenic call [6] was “inactive; negative” and the mutagenic call [7] was “inactive; negative”. The mutagenic call [8] was “inactive; negative”, the mutagenic call (Test System: AMES SALMONELLA TYPHIMURIUM, Strain/Indicator: TA1535, Metabolic Activation: RAT LIVER S-9, PHENOBARBITAL AND BETA-NAPHTHOFLAVONE, Method: PREINCUBATION) was “inactive; negative” and the mutagenic call [9] was “inactive; negative”. The mutagenic call (Test System: AMES SALMONELLA TYPHIMURIUM, Strain/Indicator: TA1537, Metabolic Activation: HAMSTER, LIVER, S-9, AROCLOR 1254 (10%), Method: PREINCUBATION) was “inactive; negative”, the mutagenic call [10] was “inactive; negative” and the mutagenic call (Test System: AMES SALMONELLA TYPHIMURIUM, Strain/Indicator: TA1537, Metabolic Activation: RAT LIVER S-9, PHENOBARBITAL AND BETA-NAPHTHOFLAVONE, Method: PREINCUBATION) was “inactive; negative”. For the same compound, the mutagenic call (Test System: AMES SALMONELLA TYPHIMURIUM, Strain/Indicator: TA1537, Metabolic Activation: RAT, LIVER, S-9, AROCLOR 1254 (10%), Method: PREINCUBATION) was “inactive; negative”, the mutagenic call (Test System: AMES SALMONELLA TYPHIMURIUM, Strain/Indicator: TA1538, Metabolic Activation: NONE, Method: PREINCUBATION) was “inactive; negative” and the mutagenic call (Test System: AMES SALMONELLA TYPHIMURIUM, Strain/Indicator: TA1538, Metabolic Activation: RAT LIVER S-9, PHENOBARBITAL AND BETA-NAPHTHOFLAVONE, Method: PREINCUBATION) was “inactive; negative”. For the same compound, the mutagenic call (Test System: E.COLI, Strain/Indicator: WP2UVRA, Metabolic Activation: NONE, Method: PREINCUBATION) was “active; positive” and the mutagenic call (Test System: E.COLI, Strain/Indicator: WP2UVRA, Metabolic Activation: RAT LIVER S-9, PHENOBARBITAL AND BETA-NAPHTHOFLAVONE, Method: PREINCUBATION) was “inactive; negative”.

In the case of `c1cnc2c(c1)[C@@H]1O[C@H]1C1OC21` (some centres undefined), the mutagenic call (Test System: AMES SALMONELLA TYPHIMURIUM, Strain/Indicator: TA100, Metabolic Activation: NONE, Method: STANDARD PLATE) is reported as “inactive; negative” and the mutagenic call (Test System: AMES SALMONELLA TYPHIMURIUM, Strain/Indicator: TA100, Metabolic Activation: RAT, LIVER, S-9, AROCLOR 1254 (10% OR 20%), Method: STANDARD PLATE) is reported as “inactive; negative”.

In the case of `C=C(C)C(C)Cl` (centres undefined), the mutagenic call (Test System: AMES SALMONELLA TYPHIMURIUM, Strain/Indicator: TA100, Metabolic Activation: NONE, Method: LIQUID SUSPENSION) is reported as “active; positive”.

For `Oc1ccc(Nc2ccc3ccccc3c2)cc1`, the mutagenic call (Test System: AMES SALMONELLA TYPHIMURIUM, Strain/Indicator: TA97, Metabolic Activation: HAMSTER, LIVER, S-9, AROCLOR 1254 (10%), Method: PREINCUBATION) was “inactive; negative”, the mutagenic call (Test System: AMES SALMONELLA TYPHIMURIUM, Strain/Indicator: TA97, Metabolic Activation: HAMSTER, LIVER, S-9, AROCLOR 1254 (30%), Method: PREINCUBATION) was “inactive; negative” and the mutagenic call (Test System: AMES SALMONELLA TYPHIMURIUM, Strain/Indicator: TA97, Metabolic Activation: NONE, Method: PREINCUBATION) was “inactive; negative”. For the same compound, the mutagenic call (Test System: AMES SALMONELLA TYPHIMURIUM, Strain/Indicator: TA97, Metabolic Activation: RAT, LIVER, S-9, AROCLOR 1254 (10%), Method: PREINCUBATION) was “inactive; negative”, the mutagenic call (Test System: AMES SALMONELLA TYPHIMURIUM, Strain/Indicator: TA97, Metabolic Activation: RAT, LIVER, S-9, AROCLOR 1254 (30%), Method: PREINCUBATION) was “inactive; negative” and the mutagenic call [1] was “inactive; negative”. For the same compound, the mutagenic call (Test System: AMES SALMONELLA TYPHIMURIUM, Strain/Indicator: TA98, Metabolic Activation: HAMSTER, LIVER, S-9, AROCLOR 1254 (30%), Method: PREINCUBATION) was “inactive; negative”, the mutagenic call [2] was “inactive; negative” and the mutagenic call [3] was “inactive; negative”. For the same compound, the mutagenic call (Test System: AMES SALMONELLA TYPHIMURIUM, Strain/Indicator: TA98, Metabolic Activation: RAT, LIVER, S-9, AROCLOR 1254 (30%), Method: PREINCUBATION) was “inactive; negative”, the mutagenic call [4] was “inactive; negative” and the mutagenic call (Test System: AMES SALMONELLA TYPHIMURIUM, Strain/Indicator: TA100, Metabolic Activation: HAMSTER, LIVER, S-9, AROCLOR 1254 (30%), Method: PREINCUBATION) was “inactive; negative”. For the same compound, the mutagenic call [5] was “inactive; negative”, the mutagenic call [6] was “inactive; negative” and the mutagenic call (Test System: AMES SALMONELLA TYPHIMURIUM, Strain/Indicator: TA100, Metabolic Activation: RAT, LIVER, S-9, AROCLOR 1254 (30%), Method: PREINCUBATION) was “inactive; negative”. For the same compound, the mutagenic call [7] was “inactive; negative”, the mutagenic call (Test System: AMES SALMONELLA TYPHIMURIUM, Strain/Indicator: TA1535, Metabolic Activation: HAMSTER, LIVER, S-9, AROCLOR 1254 (30%), Method: PREINCUBATION) was “inactive; negative” and the mutagenic call [8] was “inactive; negative”. For the same compound, the mutagenic call [9] was “inactive; negative”, the mutagenic call (Test System: AMES SALMONELLA TYPHIMURIUM, Strain/Indicator: TA1535, Metabolic Activation: RAT, LIVER, S-9, AROCLOR 1254 (30%), Method: PREINCUBATION) was “inactive; negative” and the mutagenic call (Test System: AMES SALMONELLA TYPHIMURIUM, Strain/Indicator: TA1537, Metabolic Activation: HAMSTER, LIVER, S-9, AROCLOR 1254 (30%), Method: PREINCUBATION) was “inactive; negative”. For the same compound, the mutagenic call [10] was “inactive; negative” and the mutagenic call (Test System: AMES SALMONELLA TYPHIMURIUM, Strain/Indicator: TA1537, Metabolic Activation: RAT, LIVER, S-9, AROCLOR 1254 (30%), Method: PREINCUBATION) was “inactive; negative”.

For `CC(=O)NO`, the mutagenic call (Test System: AMES SALMONELLA TYPHIMURIUM, Strain/Indicator: TA98, Metabolic Activation: NONE, Method: STANDARD PLATE) was “active; positive”, the mutagenic call (Test System: AMES SALMONELLA TYPHIMURIUM, Strain/Indicator: TA98, Metabolic Activation: RAT, LIVER, S-9, Method: STANDARD PLATE) was “active; positive” and the mutagenic call (Test System: AMES SALMONELLA TYPHIMURIUM, Strain/Indicator: TA100, Metabolic Activation: RAT, LIVER, S-9, Method: STANDARD PLATE) was “inactive; negative”.
